Legend:
[1] = test system: normal human prostate epithelial cells; test: SU-ECM invasion assay, normal human prostate epithelial cells; assay type: cell-based; settings: 10% FCS, 100 ng per ml PHSRN, FIG. 6B
Procedure: Adult Strongylocentrotus purpuratus sea urchins were obtained from Pacific BioMarine, and their embryos were cultured to the early pluteus stage in artificial sea water at 15° C. SU-ECM were prepared from them by treatment with nonionic detergent and strerilized by dilution in the appropriate media. […]
Invasion assays were coded and scored blindly by microscopic examination under phase contrast at 200- and 400-fold magnification. Each cell contacting an SU-ECM was scored for its position relative to the exterior or interior surfaces. […] The minimum viability of the cells in each assay was always ascertained at the time of assay by determining the fraction of spread, adherent cells on the bottom of each well scored.
An invasion frequency is defined as the fraction of cells in contact with basement membranes which were located in their interiors at the time of assay. […] Invasion frequencies were determined multiple times for each cell type assayed. For each type of cell assayed the mean and standard deviation of the invasion frequencies were calculated. […]

[2] = test system: metastatic SUM-52 PE breast cancer cells; test: SU-ECM invasion assay, SUM-52 PE breast cancer cells; assay type: cell-based, human; settings: SUM-52 PE; for inhibition of PHSRN-induced invasion of SU-ECM: serum free medium, 100 ng per ml PHSRN, FIG. 5B; for inhibition of serum-induced invasion of SU-ECM: FIG. 5A
Procedure: Human breast carcinoma cell lines SUM 52 PE and SUM 44 PE were originally cultured from the pleural effusions of patients with metastatic breast cancer; and SUM 102 was cultured from a primary, microinvasive breast carcinoma (Ethier, S. P., Mahack, M. L., Gullick, W. J., Frank, T. S., and Weber, B. L. Differential isolation of normal luminal mammary epithelial cells and breast cancer cells from primary and metastatic sites using selective media. Cancer Res. 53: 627-635).
(§1) Adult Strongylocentrotus purpuratus sea urchins were obtained from Pacific BioMarine, and their embryos were cultured to the early pluteus stage in artificial sea water at 15° C. SU-ECM were prepared from them by treatment with nonionic detergent and strerilized by dilution in the appropriate media.
(§2) Cells were harvested by rinsing in Hanks' balanced salt solution, followed by brief treatment with 0.25% trypsin, 0.02% EDTA, and pelleting and resuspension in the appropriate medium with or without 5% FCS at a density of about 50,000 cells per ml. When appropriate, purified bovine plasma fibronectin (Sigma), purified 120 kDa chymotryptic fragment (Gibco BRL), PHSRN (SEQ ID NO:1) or PHSCN (SEQ ID NO:86) peptides (synthesized at the Biomedical Research Core Facilities of the University of Michigan), or GRGDSP (SEQ ID NO:83) or GRGESP (SEQ ID NO:84) peptides (Gibco BRL) were added to the resuspended cells prior to placement of the cells on SU-ECM. In each well of a plate used for an invasion assay, SU-ECM were placed in 0.5 ml of the appropriate medium, and 0.5 ml of the resuspended cells dropped on their exterior surfaces. Invasion assays were incubated 1 to 16 hours prior to assay. If some circumstances, invasion assays were fixed in phosphate-buffered saline (PBS) with 2% formaldehyde for 5 minutes at room temperature, then rinsed into PBS.
(§3) Invasion assays were coded and scored blindly by microscopic examination under phase contrast at 200- and 400-fold magnification. Each cell contacting an SU-ECM was scored for its position relative to the exterior or interior surfaces. A cell was judged to have invaded if it was located on an interior surface below the focal plane passing through the upper surface of the SU-ECM, but above the focal plane passing through its lower surface. The minimum viability of the cells in each assay was always ascertained at the time of assay by determining the fraction of spread, adherent cells on the bottom of each well scored.
(§4) An invasion frequency is defined as the fraction of cells in contact with basement membranes which were located in their interiors at the time of assay. Thus, an invasion frequency of 1 denotes invasion by 100% of the cells in contact with basement membranes. Invasion frequencies were determined multiple times for each cell type assayed. For each type of cell assayed the mean and standard deviation of the invasion frequencies were calculated.
The method of Example 4 is employed, with the addition of varying concentrations of the PHSCN (SEQ ID NO:86) peptide.
Thus, the procedure in Example 4 provides a method for determining the inhibitory potential of the PHSCN (SEQ ID NO:86) peptide by comparing the number of cell invasions in the presence of the PHSCN (SEQ ID NO:86) peptide, with the number of cell invasions in the absence of the PHSCN (SEQ ID NO:86) peptide.

[3] = Clotting of peptide-treated blood in vivo; settings: in vivo observation
Description: In addition to using the PHSRN (SEQ ID NO:1) antagonists described above as anti-invasion chemotherapeutics, it is also contemplated that these antagonists be used as anti-thrombotics.

[4] = test system: rat metastatic prostate carcinoma MatLyLu (MLL) cells; test: SU-ECM invasion assay, rat MatLyLu prostate carcinoma cells; assay type: cell-based; settings: for inhibition of PHSRN-induced invasion of SU-ECM: serum free media, 100 ng per ml PHSRN, FIG. 7B
Procedure: as §1, §2, §3, §4
The result of adding a varying concentration of the PHSCN (SEQ ID NO:86) peptide to PHSRN-induced (SEQ ID NO:1) MLL cells in serum free media is shown in FIG. 7B, where 100 ng per ml of PHSRN (SEQ ID NO:1) was used to induce invasion.
The procedure described in Example 10, was employed using SU-ECM substrates in 10% FCS and PHS(hC)N (SEQ ID NO:85) instead of PHSCN (SEQ ID NO:86). The result of adding varying concentrations of the PHS(hC)N (SEQ ID NO:85) peptide to serum-induced MLL cells indicates this peptide also has an inhibitory affect on cell invasion (see FIG. 8).

Which results are given for Pro-His-Ser-Cys-Asn (PHSCN)?
inhibition of PHSRN-induced invasion of SU-ECM ([1]; higher concentrations): almost complete inhibition; inhibition of PHSRN-induced invasion of SU-ECM ([1]; low concentrations): substantial inhibitory affect; inhibition of PHSRN-induced invasion of SU-ECM ([2]; higher concentrations): almost complete inhibition; inhibition of PHSRN-induced invasion of SU-ECM ([2]; low concentrations): substantial inhibitory affect; inhibition of serum-induced invasion of SU-ECM ([2]; relatively high PHSCN concentrations): complete inhibition; inhibition of serum-induced invasion of SU-ECM ([2]; relatively low PHSCN concentrations): substantial inhibitory affect; clotting of peptide-treated blood [3]: clot very slowly; inhibition of PHSRN-induced invasion of SU-ECM ([4]; higher concentrations): almost complete inhibition; inhibition of PHSRN-induced invasion of SU-ECM ([4]; low concentrations): substantial inhibitory affect; inhibition of serum-induced invasion of SU-ECM ([4]; serum-induced, I microgram per ml peptide, FIG. 7A): complete inhibition of invasion

From US6472369B1, “Anticancer compounds and methods” (The Regents of the University of Michigan, priority 1996, dated 2002)
